Laboratory results reported in the supplement of paper PMC10627819.

Legend:
Conditions in all cases: main component drawn
S. aureus Newman [1] = assay: Bliss interaction score (quartile over a dose matrix) (fitness difference); higher = more antagonism (negative = synergy)
Outline: (§1)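 At entry into stationary phase, OD595 was recorded and divided by the robust mean of the no-drug wells on that plate, with any value above 1 set to 1. This gives the fitness measure used throughout. Single-drug fitness was inferred from combination data, and the Bliss score, observed minus product-expected fitness, is shown as quartiles across technical, biological and donor/recipient replicates.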

B. subtilis 168 = assay: as above
Outline: as §1

S. pneumoniae D39V = assay: as above
Outline: as §1

S. aureus DSM 20231 = assay: as above
Outline: as §1

S. aureus Newman [2] = assay: fitness (endpoint OD595 vs no drug) (fraction); higher = more growth
Outline: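 Each well of a 384-well plate received 30 µl of culture at OD595 0.01, or 55 µl for S. pneumoniae. TSB, LB Lennox or CY served as media at 37 °C. OD595 was taken every 30 min for 14 h and corrected by subtracting the first reading. Fitness is the optical density at stationary-phase entry divided by the robust mean of no-drug controls, capped at 1.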
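Throughout, for Bliss interaction score (quartile over a dose matrix): first quartile when negative (synergy) and third quartile when positive (antagonism).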

CC[C@H](C)[C@H](N)C1=N[C@H](C(=O)N[C@@H](CC(C)C)C(=O)N[C@H](CCC(=O)O)C(=O)N[C@H](C(=O)N[C@H]2CCCCNC(=O)[C@H](CC(N)=O)NC(=O)[C@@H](CC(=O)O)NC(=O)[C@H](Cc3cnc[nH]3)NC(=O)[C@@H](Cc3ccccc3)NC(=O)[C@H]([C@@H](C)CC)NC(=O)[C@@H](CCCN)NC2=O)[C@@H](C)CC)CS1 [Bacitracin] + CCCCCCCCCC(=O)N[C@@H]1[C@H]([C@@H]([C@H](O[C@H]1OC2=C3C=C4C=C2OC5=C(C=C(C=C5)[C@H]([C@H]6C(=O)N[C@@H](C7=C(C(=CC(=C7)O)OC8[C@H]([C@H]([C@@H]([C@H](O8)CO)O)O)O)C9=C(C=CC(=C9)[C@H](C(=O)N6)NC(=O)[C@@H]4NC(=O)[C@@H]1C2=CC(=CC(=C2)OC2=C(C=CC(=C2)[C@H](C(=O)N[C@H](CC2=CC(=C(O3)C=C2)Cl)C(=O)N1)N)O)O)O)C(=O)O)O[C@H]1[C@@H]([C@H]([C@@H]([C@H](O1)CO)O)O)NC(=O)C)Cl)CO)O)O [Teicoplanin]
Conditions	Bliss interaction score
B. subtilis 168	-0.119
S. aureus DSM 20231	-0.0716
S. aureus Newman [1]	0.0565
S. pneumoniae D39V	-0.0678

fitness, S. aureus Newman [2]
Conditions	first compound 18.75 µg/mL	first compound 37.5 µg/mL	first compound 75 µg/mL
partner 0.1562 µg/mL	0.777	0.249	0.0017
partner 0.3125 µg/mL	0.77	0.202	0.0042
partner 0.625 µg/mL	0.683	0.206	0

fitness, S. aureus Newman [2], one replicate
Conditions	first compound 18.75 µg/mL	first compound 37.5 µg/mL	first compound 75 µg/mL
partner 0.62 µg/mL	0.543	0.0346	0.0093
partner 1.24 µg/mL	0.424	0.0167	0.0003
partner 2.48 µg/mL	0.0859	0.0387	0.0349

CC[C@H](C)[C@H](N)C1=N[C@H](C(=O)N[C@@H](CC(C)C)C(=O)N[C@H](CCC(=O)O)C(=O)N[C@H](C(=O)N[C@H]2CCCCNC(=O)[C@H](CC(N)=O)NC(=O)[C@@H](CC(=O)O)NC(=O)[C@H](Cc3cnc[nH]3)NC(=O)[C@@H](Cc3ccccc3)NC(=O)[C@H]([C@@H](C)CC)NC(=O)[C@@H](CCCN)NC2=O)[C@@H](C)CC)CS1 [Bacitracin] + CN[C@H](CC(C)C)C(=O)N[C@H]1C(=O)N[C@@H](CC(N)=O)C(=O)N[C@H]2C(=O)N[C@H]3C(=O)N[C@H](C(=O)N[C@H](C(=O)O)c4cc(O)cc(O)c4-c4cc3ccc4O)[C@H](O)c3ccc(c(Cl)c3)Oc3cc2cc(c3O[C@@H]2O[C@H](CO)[C@@H](O)[C@H](O)[C@H]2O[C@H]2C[C@](C)(N)[C@H](O)[C@H](C)O2)Oc2ccc(cc2Cl)[C@H]1O [Vancomycin]
Conditions	Bliss interaction score
B. subtilis 168	0.0708
S. aureus DSM 20231	0.0843
S. aureus Newman [1]	-0.0422
S. pneumoniae D39V	-0.0651

fitness, S. aureus Newman [2]
Conditions	first compound 18.75 µg/mL	first compound 37.5 µg/mL	first compound 75 µg/mL
partner 0.1875 µg/mL	0.735	0.183	0.0338
partner 0.375 µg/mL	0.723	0.135	0.0309
partner 0.75 µg/mL	0.712	0.159	0.0262

CC[C@H](C)[C@H](N)C1=N[C@H](C(=O)N[C@@H](CC(C)C)C(=O)N[C@H](CCC(=O)O)C(=O)N[C@H](C(=O)N[C@H]2CCCCNC(=O)[C@H](CC(N)=O)NC(=O)[C@@H](CC(=O)O)NC(=O)[C@H](Cc3cnc[nH]3)NC(=O)[C@@H](Cc3ccccc3)NC(=O)[C@H]([C@@H](C)CC)NC(=O)[C@@H](CCCN)NC2=O)[C@@H](C)CC)CS1 [Bacitracin] + CO/N=C(\C(=O)N[C@@H]1C(=O)N2C(C(=O)[O-])=C(C[N+]3(C)CCCC3)CS[C@H]12)c1csc(N)n1 [Cefepime]
Conditions	Bliss interaction score
B. subtilis 168	-0.124
S. aureus DSM 20231	0.0889
S. aureus Newman [1]	-0.0863
S. pneumoniae D39V	-0.144

fitness, S. aureus Newman [2]
Conditions	first compound 18.75 µg/mL	first compound 37.5 µg/mL	first compound 75 µg/mL
partner 0.125 µg/mL	0.699	–	0.0274
partner 0.25 µg/mL	0.634	–	0.0298
partner 0.5 µg/mL	–	0.0986	0.0408

CC[C@H](C)[C@H](N)C1=N[C@H](C(=O)N[C@@H](CC(C)C)C(=O)N[C@H](CCC(=O)O)C(=O)N[C@H](C(=O)N[C@H]2CCCCNC(=O)[C@H](CC(N)=O)NC(=O)[C@@H](CC(=O)O)NC(=O)[C@H](Cc3cnc[nH]3)NC(=O)[C@@H](Cc3ccccc3)NC(=O)[C@H]([C@@H](C)CC)NC(=O)[C@@H](CCCN)NC2=O)[C@@H](C)CC)CS1 [Bacitracin] + Cn1nnc(-c2ccc(-c3ccc(N4C[C@H](CO)OC4=O)cc3F)cn2)n1 [Tedizolid]
Conditions	Bliss interaction score
B. subtilis 168	-0.0855
S. aureus DSM 20231	-0.0663
S. aureus Newman [1]	-0.222
S. pneumoniae D39V	0.12

fitness, S. aureus Newman [2]
Conditions	first compound 18.75 µg/mL	first compound 37.5 µg/mL	first compound 75 µg/mL
partner 0.0625 µg/mL	0.646	0.0796	0.0039
partner 0.125 µg/mL	–	0.0327	0.0056
partner 0.25 µg/mL	0.0222	0.0202	0.0046

CC[C@H](C)[C@H](N)C1=N[C@H](C(=O)N[C@@H](CC(C)C)C(=O)N[C@H](CCC(=O)O)C(=O)N[C@H](C(=O)N[C@H]2CCCCNC(=O)[C@H](CC(N)=O)NC(=O)[C@@H](CC(=O)O)NC(=O)[C@H](Cc3cnc[nH]3)NC(=O)[C@@H](Cc3ccccc3)NC(=O)[C@H]([C@@H](C)CC)NC(=O)[C@@H](CCCN)NC2=O)[C@@H](C)CC)CS1 [Bacitracin] + O=C(N[C@H](CO)[C@H](O)c1ccc([N+](=O)[O-])cc1)C(Cl)Cl [Chloramphenicol]
Conditions	Bliss interaction score
B. subtilis 168	-0.106
S. aureus DSM 20231	-0.0262
S. aureus Newman [1]	-0.0971
S. pneumoniae D39V	-0.0459

fitness, S. aureus Newman [2]
Conditions	first compound 18.75 µg/mL	first compound 37.5 µg/mL	first compound 75 µg/mL
partner 0.75 µg/mL	0.589	0.182	0.0093
partner 1.5 µg/mL	0.38	0.0293	0.0143
partner 3 µg/mL	0.0184	0.0086	0.0146

CN[C@@H]1[C@H](O[C@H]2[C@H](O[C@H]3[C@H](O)[C@@H](O)[C@H](N=C(N)N)[C@@H](O)[C@@H]3N=C(N)N)O[C@@H](C)[C@]2(O)C=O)O[C@@H](CO)[C@H](O)[C@H]1O [Streptomycin] + CCCCCCCCCC(=O)N[C@@H]1[C@H]([C@@H]([C@H](O[C@H]1OC2=C3C=C4C=C2OC5=C(C=C(C=C5)[C@H]([C@H]6C(=O)N[C@@H](C7=C(C(=CC(=C7)O)OC8[C@H]([C@H]([C@@H]([C@H](O8)CO)O)O)O)C9=C(C=CC(=C9)[C@H](C(=O)N6)NC(=O)[C@@H]4NC(=O)[C@@H]1C2=CC(=CC(=C2)OC2=C(C=CC(=C2)[C@H](C(=O)N[C@H](CC2=CC(=C(O3)C=C2)Cl)C(=O)N1)N)O)O)O)C(=O)O)O[C@H]1[C@@H]([C@H]([C@@H]([C@H](O1)CO)O)O)NC(=O)C)Cl)CO)O)O [Teicoplanin]
Conditions	Bliss interaction score
B. subtilis 168	-0.0977
S. aureus DSM 20231	-0.227
S. aureus Newman [1]	-0.118
S. pneumoniae D39V	-0.0928

fitness, S. aureus Newman [2]
Conditions	first compound 1 µg/mL	first compound 2 µg/mL	first compound 4 µg/mL
partner 0.1562 µg/mL	≥ 1	≥ 1	–
partner 0.3125 µg/mL	≥ 1	0.932	–
partner 0.625 µg/mL	0.917	0.803	0.344

fitness, S. aureus Newman [2], one replicate
Conditions	first compound 2 µg/mL	first compound 4 µg/mL	first compound 8 µg/mL
partner 0.62 µg/mL	0.737	0.574	0.0838
partner 1.24 µg/mL	0.527	0.0741	0.0255
partner 2.48 µg/mL	0.0707	0.0385	0.103
